Our source for the GI50 and IC50 values is patent publication US20250179059A1 (The Regents of the University of California, priority 2021, published 2025).

Like-named read-outs stand apart in the source and are kept apart here.

Assay [1] deals with human SKM-1 acute myeloid leukemia cells. The assay is described as follows: SKM-1 antiproliferation cell-based assay (ATPlite). Particulars: Homo sapiens. The gist of the method:
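Log-phase cells in RPMI 1640/15% FBS were seeded at 34722 cells/mL and exposed for 4 days to nine-concentration DMSO serial dilutions in triplicate. Viability was read as ATP luminescence (ATPlite 1step), and IC50 values came from variable-slope non-linear regression.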
For orientation: Cellular ATP, detected with luciferase, serves as a proxy for viable cell number.

For assay [2], the target named is T1, human BRD4 bromodomain II (Homo sapiens, UniProt O60885).
T1 construct: human BRD4 bromodomain II [based on Genbank NM_058243, residues 349-460]; host or cells: E. coli
The assay is described as follows: Bromodomain binding assay (AlphaScreen), BRD4 BDII. In outline:
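AlphaScreen competition with biotinylated H4 peptide (aa 1-21, K5/K8/K12/K16Ac), using nickel-chelate acceptor and streptavidin donor beads. Targets were His6-BRD4 BDI (44-170) or BDII (349-460), with a 30 min compound preincubation over a 10-point 3-fold series. IC50 was fitted from percentage peptide binding.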
In general terms: In Alpha technology, singlet oxygen from a donor bead excites a nearby acceptor bead.

The mark [3] stands for this setting: SKM-1, 96 h, SKM-1 antiproliferation assay, 4 days, Table C2.
The mark [4] stands for this setting: AlphaScreen assay, Table C2, read-out: BRD4 BDII IC50.
Setting [5] is: SKM-1, SKM-1 antiproliferation assay.
Setting [6] is: BRD4 BDII AlphaScreen assay, read-out: BRD4 BD2 IC50.

With `CC(=O)Nc1ccc(-c2cccc(-c3cncc(N4CCN[C@H](C)C4)c3)c2O)cc1F` [Example 258], in assay [1] (setting [3]), the GI50 – broadly, the concentration at which growth is held to half of that of the control – was 30 to 300 nM. Moreover, the IC50 (in general, the point on the concentration scale where inhibition reaches its midpoint) in assay [2] (setting [4]) is 1 to 10 nM.
In the same order, the values of `Cn1ccn(-c2ccc(-c3cc(F)cc(-c4ccnc(N5CCC(C)(O)C5)c4)c3O)cc2Cl)c1=O` (stereo not shown) [Example 685, 1-(3-chloro-5′-fluoro-2′-hydroxy-3′-(2-(3-hydroxy-3-methylpyrrolidin-1-yl)pyridin-4-yl)-[1,1′-biphenyl]-4-yl)-3-methyl-1H-imidazol-2(3H)-one] are 0.3 to 30 nM and 0.01 to 1 nM.
In assay [1] (setting [3]), `CC(=O)Nc1ccc(-c2cccc(-c3cc(C)nc(N4CCNCC4)c3)c2O)cc1F` [Example 244, N-(3-fluoro-2′-hydroxy-3′-(2-methyl-6-(piperazin-1-yl)pyridin-4-yl)-[1,1′-biphenyl]-4-yl)acetamide] gave a GI50 of 30 to 300 nM. For the same molecule, in assay [2] (setting [4]), the IC50 is 1 to 10 nM.
For `Cn1ccn(-c2ccc(-c3cc(F)cc(-c4cccc(-c5cccc(O)c5)c4)c3O)cc2Cl)c1=O` [Example 864], the GI50 in assay [1] (setting [5]) is 300 to 3000 nM. For the same molecule, in assay [2] (setting [6]), the IC50 was 10 to 100 nM.
The molecule `Cn1cc(-c2ccc(-n3ccn(C)c3=O)c(Cl)c2)c(O)c(-c2cccc(N3CCN(C(C)(C)C)CC3)c2)c1=O` [Example 1018, 3-(3-(4-(tert-butyl)piperazin-1-yl)phenyl)-5-(3-chloro-4-(3-methyl-2-oxo-2,3-dihydro-1H-imidazol-1-yl)phenyl)-4-hydroxy-1-methylpyridin-2(1H)-one] displayed a GI50 in assay [1] (setting [5]) of 30 to 300 nM. Besides, the IC50 in assay [2] (setting [6]) lay in the range of 10 to 100 nM.
In assay [1] (setting [3]), `Cn1ccn(-c2ccc(-c3cc(F)cc(-c4ccnc(N5CCC[C@H](CN)C5)c4)c3O)cc2Cl)c1=O` [Example 497, (R)-1-(3′-(2-(3-(aminomethyl)piperidin-1-yl)pyridin-4-yl)-3-chloro-5′-fluoro-2′-hydroxy-[1,1′-biphenyl]-4-yl)-3-methyl-1H-imidazol-2(3H)-one] gave a GI50 of 300 to 3000 nM. Also, the IC50 in assay [2] (setting [4]) lay within 1 to 10 nM.
In the same order, the values of `Cc1ncc(-c2cc(F)cc(-c3ccc(-n4ccn(C)c4=O)c(Cl)c3)c2O)cc1N1CC(C)(O)C2(CC2)C1` (stereo not shown) [Example 829, 1-(3-chloro-5′-fluoro-2′-hydroxy-3′-(5-(7-hydroxy-7-methyl-5-azaspiro[2.4]heptan-5-yl)-6-methylpyridin-3-yl)-[1,1′-biphenyl]-4-yl)-3-methyl-1H-imidazol-2(3H)-one] are 0.3 to 30 nM and 0.01 to 1 nM.
In the same order, the values of `CC(C)N1CCN(c2cc(-c3cc(F)cc(-c4ccc(-n5ccn(C)c5=O)c(Cl)c4)c3O)cnc2Cl)CC1` [Example 787, 1-(3-chloro-3′-(6-chloro-5-(4-isopropylpiperazin-1-yl)pyridin-3-yl)-5′-fluoro-2′-hydroxy-[1,1′-biphenyl]-4-yl)-3-methyl-1H-imidazol-2(3H)-one] are 0.3 to 30 nM and 0.01 to 1 nM.
On to `CC(C)N1CCN(c2cc(-c3cc(F)cc(-c4ccc(-n5ccn(C)c5=O)c(Cl)c4)c3O)cnc2C(F)F)CC1` [Example 831, 1-(3-chloro-3′-(6-(difluoromethyl)-5-(4-isopropylpiperazin-1-yl)pyridin-3-yl)-5′-fluoro-2′-hydroxy-[1,1′-biphenyl]-4-yl)-3-methyl-1H-imidazol-2(3H)-one], for which, in assay [1] (setting [3]), the GI50 fell in the range of 0.3 to 30 nM. The concentration for half-maximal inhibition (IC50) in assay [2] (setting [4]) lay in the range of 1 to 10 nM.
In the same order, the values of `Cn1ccn(-c2ccc(-c3cc(F)cc(-c4ccnc(N5CCC(C)(N)C5)c4)c3O)cc2Cl)c1=O` (stereo not shown) [Example 686, 1-(3′-(2-(3-amino-3-methylpyrrolidin-1-yl)pyridin-4-yl)-3-chloro-5′-fluoro-2′-hydroxy-[1,1′-biphenyl]-4-yl)-3-methyl-1H-imidazol-2(3H)-one] are 0.3 to 30 nM and 0.01 to 1 nM.
As for `CC(=O)Nc1ccc(-c2cc(F)cc(-c3cccc(N4CCN(C(C)(C)C)CC4)c3)c2O)nn1` [Example 896], in assay [1] (setting [5]), the GI50 was in the range of 300 to 3000 nM. Moreover, the IC50 in assay [2] (setting [6]) is more than 100 nM.
